Test results published in patent US20230278981A1, “DICHLOROPHENOL HSD17B13 INHIBITORS AND USES THEREOF” (INIPHARM, INC., priority 2020, published 2023).
Counter-ions that a name gives are not always drawn.

Target: HSD17B13 (Homo sapiens (Human), UniProt Q7Z5P4)
Assay: LC/MS estrone detection assay: conversion of estradiol to estrone by HSD17B13
Type: biochemical
Settings: 4 μM estradiol, 6 mM NAD+, 30 nM HSD17B13 enzyme (E. coli expressed His-tagged), 2 hours at 26.5° C.
Method in brief: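 His-tagged E. coli-expressed HSD17B13 (30 nM) with 4 μM estradiol and 6 mM NAD+ in 1 M potassium phosphate pH 7.4, 0.5% DMSO, 2 h at 26.5° C. Estrone and estradiol quantified by LC-MS/MS after MeCN quench with D4-estrone internal standard; activity as % of uninhibited enzyme, IC50 by four-parameter fit, duplicates.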

Chain of HSD17B13 (Q7Z5P4 20-300): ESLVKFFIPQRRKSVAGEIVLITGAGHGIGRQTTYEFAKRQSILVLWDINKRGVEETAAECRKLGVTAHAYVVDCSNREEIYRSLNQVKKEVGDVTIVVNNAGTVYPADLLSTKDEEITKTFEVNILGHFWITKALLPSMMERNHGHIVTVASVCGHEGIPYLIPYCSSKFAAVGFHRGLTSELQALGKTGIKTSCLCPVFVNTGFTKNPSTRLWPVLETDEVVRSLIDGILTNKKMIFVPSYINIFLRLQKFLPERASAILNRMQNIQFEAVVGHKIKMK

IC50 [nM]	Compound
100 to 500	O=C(Nc1ccnc2ncn(Cc3ccccc3OC(F)(F)F)c(=O)c12)c1cc(Cl)c(O)c(Cl)c1 [Example 92, 3,5-dichloro-4-hydroxy-N-(4-oxo-3-(2-(trifluoromethoxy)benzyl)-3,4-dihydropyrido[2,3-d]pyrimidin-5-yl)benzamide]
≤ 100	Cn1c(=O)n(Cc2ccccc2OC(F)(F)F)c(=O)c2c(NC(=O)c3cc(Cl)c(O)c(Cl)c3)cccc21 [Example 93, 3,5-dichloro-4-hydroxy-N-(1-methyl-2,4-dioxo-3-(2-(trifluoromethoxy)benzyl)-1,2,3,4-tetrahydroquinazolin-5-yl)benzamide]
100 to 500	Cc1ccc2ncn(Cc3ccccc3OC(F)(F)F)c(=O)c2c1NC(=O)c1cc(Cl)c(O)c(Cl)c1 [Example 94, 3,5-dichloro-4-hydroxy-N-(6-methyl-4-oxo-3-(2-(trifluoromethoxy)benzyl)-3,4-dihydroquinazolin-5-yl)benzamide]
100 to 500	O=C(Nc1ccnc2[nH]c(=O)n(Cc3ccccc3OC(F)(F)F)c(=O)c12)c1cc(Cl)c(O)c(Cl)c1 [Example 95, 3,5-dichloro-N-(2,4-dioxo-3-(2-(trifluoromethoxy)benzyl)-1,2,3,4-tetrahydropyrido[2,3-d]pyrimidin-5-yl)-4-hydroxybenzamide]
≤ 100	Cc1nc2nccc(NC(=O)c3cc(Cl)c(O)c(Cl)c3)c2c(=O)n1Cc1ccccc1OC(F)(F)F [Example 96, 3,5-dichloro-4-hydroxy-N-(2-methyl-4-oxo-3-(2-(trifluoromethoxy)benzyl)-3,4-dihydropyrido[2,3-d]pyrimidin-5-yl)benzamide]
100 to 500	O=C(Nc1csc2ncn(Cc3ccccc3)c(=O)c12)c1cc(Cl)c(O)c(Cl)c1 [Example 97, N-(3-benzyl-4-oxo-3,4-dihydrothieno[2,3-d]pyrimidin-5-yl)-3,5-dichloro-4-hydroxybenzamide]
100 to 500	O=C(Nc1csc2ncn(Cc3ccccc3)c(=O)c12)c1cc(Cl)c(O)c(Cl)n1 [Example 98, N-(3-benzyl-4-oxo-3,4-dihydrothieno[2,3-d]pyrimidin-5-yl)-4,6-dichloro-5-hydroxypicolinamide]
1000 to 10000	Cn1nc(NC(=O)c2cc(Cl)c(O)c(Cl)c2)c2c(=O)n(Cc3ccccc3)cnc21 [Example 99, N-(5-benzyl-1-methyl-4-oxo-4,5-dihydro-1H-pyrazolo[3,4-d]pyrimidin-3-yl)-3,5-dichloro-4-hydroxybenzamide]
100 to 500	O=C(Nc1cccc2ncn(Cc3cnn4ccccc34)c(=O)c12)c1cc(Cl)c(O)c(Cl)c1 [Example 100, 3,5-dichloro-4-hydroxy-N-(4-oxo-3-(pyrazolo[1,5-a]pyridin-3-ylmethyl)-3,4-dihydroquinazolin-5-yl)benzamide]
1000 to 10000	O=C(Nc1cccc2nc(C(F)(F)F)n(C3CC3c3ccccc3)c(=O)c12)c1cc(Cl)c(O)c(Cl)n1 (centres unmarked) [Example 101, 4,6-dichloro-5-hydroxy-N-(4-oxo-3-(2-phenylcyclopropyl)-2-(trifluoromethyl)-3,4-dihydroquinazolin-5-yl)picolinamide]
100 to 500	O=C(Nc1csc2ncn(Cc3ccccc3OC(F)(F)F)c(=O)c12)c1cc(Cl)c(O)c(Cl)c1 [Example 103, 3,5-dichloro-4-hydroxy-N-(4-oxo-3-(2-(trifluoromethoxy)benzyl)-3,4-dihydrothieno[2,3-d]pyrimidin-5-yl)benzamide]
100 to 500	O=C(Nc1csc2ncn(Cc3ccccc3OC(F)(F)F)c(=O)c12)c1cc(Cl)c(O)c(Cl)n1 [Example 104, 4,6-dichloro-5-hydroxy-N-(4-oxo-3-(2-(trifluoromethoxy)benzyl)-3,4-dihydrothieno[2,3-d]pyrimidin-5-yl)picolinamide]
100 to 500	Cn1ccc(-c2ccccc2Cn2cnc3cccc(NC(=O)c4cc(Cl)c(O)c(Cl)c4)c3c2=O)n1 [Example 105, 3,5-dichloro-4-hydroxy-N-(3-(2-(1-methyl-1H-pyrazol-3-yl)benzyl)-4-oxo-3,4-dihydroquinazolin-5-yl)benzamide]
> 10000	NS(=O)(=O)c1ccccc1Cn1cnc2cccc(NC(=O)c3cc(Cl)c(O)c(Cl)c3)c2c1=O [Example 106, 3,5-dichloro-4-hydroxy-N-(4-oxo-3-(2-sulfamoylbenzyl)-3,4-dihydroquinazolin-5-yl)benzamide]
500 to 1000	Cn1nc(NC(=O)c2cc(Cl)c(O)c(Cl)n2)c2c(=O)n(Cc3ccccc3)cnc21 [Example 107, N-(5-benzyl-1-methyl-4-oxo-4,5-dihydro-1H-pyrazolo[3,4-d]pyrimidin-3-yl)-4,6-dichloro-5-hydroxypicolinamide]
500 to 1000	O=C(Nc1cccc2ncn([C@@H]3C[C@H]3c3ccccc3)c(=O)c12)c1cc(Cl)c(O)c(Cl)n1 [Example 108, 4,6-dichloro-5-hydroxy-N-(4-oxo-3-((1R,2S)-2-phenylcyclopropyl)-3,4-dihydroquinazolin-5-yl)picolinamide TFA Salt]

IC50 [nM]	Compound
1000 to 10000	O=C(Nc1cccc2ncn([C@H]3C[C@@H]3c3ccccc3)c(=O)c12)c1cc(Cl)c(O)c(Cl)n1 [Example 109, 4,6-dichloro-5-hydroxy-N-(4-oxo-3-((1S,2R)-2-phenylcyclopropyl)-3,4-dihydroquinazolin-5-yl)picolinamide]
100 to 500	O=C(Nc1cccc2ncn(Cc3ccccc3-c3ccccn3)c(=O)c12)c1cc(Cl)c(O)c(Cl)n1 [Example 110, 4,6-dichloro-5-hydroxy-N-(4-oxo-3-(2-(pyridin-2-yl)benzyl)-3,4-dihydroquinazolin-5-yl)picolinamide]
100 to 500	Cc1ccc(NC(=O)c2cc(Cl)c(O)c(Cl)c2)c2c(=O)n(Cc3ccccc3OC(F)(F)F)c(C(F)(F)F)nc12 [Example 112, 3,5-dichloro-4-hydroxy-N-(8-methyl-4-oxo-3-(2-(trifluoromethoxy)benzyl)-2-(trifluoromethyl)-3,4-dihydroquinazolin-5-yl)benzamide]
100 to 500	Cn1c(=O)n(Cc2ccccc2OC(F)(F)F)c(=O)c2c(NC(=O)c3cc(Cl)c(O)c(Cl)n3)cccc21 [Example 113, 4,6-dichloro-5-hydroxy-N-(1-methyl-2,4-dioxo-3-(2-(trifluoromethoxy)benzyl)-1,2,3,4-tetrahydroquinazolin-5-yl)picolinamide]
100 to 500	Cc1nsc(NC(=O)c2cc(Cl)c(O)c(Cl)n2)c1C(=O)NCc1ccccc1F [Example 114, 5-(4,6-dichloro-5-hydroxypicolinamido)-N-(2-fluorobenzyl)-3-methylisothiazole-4-carboxamide]
100 to 500	Cc1nsc(NC(=O)c2cc(Cl)c(O)c(Cl)n2)c1C(=O)N[C@@H](C)c1ccccc1F [Example 115, (S)-5-(4,6-dichloro-5-hydroxypicolinamido)-N-(1-(2-fluorophenyl)ethyl)-3-methylisothiazole-4-carboxamide]
100 to 500	O=C(Nc1cccc2nc(C(F)(F)F)n(C3CC3c3ccccc3)c(=O)c12)c1cc(Cl)c(O)c(Cl)c1 (centres unmarked) [Example 116, 3,5-dichloro-4-hydroxy-N-(4-oxo-3-(2-phenylcyclopropyl)-2-(trifluoromethyl)-3,4-dihydroquinazolin-5-yl)benzamide]
≤ 100	Cn1nc(Cn2cnc3cccc(NC(=O)c4cc(Cl)c(O)c(Cl)c4)c3c2=O)c2ccccc21 [Example 117, 3,5-dichloro-4-hydroxy-N-(3-((1-methyl-1H-indazol-3-yl)methyl)-4-oxo-3,4-dihydroquinazolin-5-yl)benzamide]
500 to 1000	Cn1nc(NC(=O)c2cc(Cl)c(O)c(Cl)c2)c2c(=O)n(Cc3ccccc3OC(F)(F)F)cnc21 [Example 118, 3,5-dichloro-4-hydroxy-N-(1-methyl-4-oxo-5-(2-(trifluoromethoxy)benzyl)-4,5-dihydro-1H-pyrazolo[3,4-d]pyrimidin-3-yl)benzamide]
100 to 500	Cn1nc(NC(=O)c2cc(Cl)c(O)c(Cl)n2)c2c(=O)n(Cc3ccccc3OC(F)(F)F)cnc21 [Example 119, 4,6-dichloro-5-hydroxy-N-(1-methyl-4-oxo-5-(2-(trifluoromethoxy)benzyl)-4,5-dihydro-1H-pyrazolo[3,4-d]pyrimidin-3-yl)picolinamide]
1000 to 10000	O=C(NCc1ccccc1OC(F)(F)F)C1CCCCN1C(=O)c1cc(Cl)c(O)c(Cl)n1 (centres unmarked) [Example 120, 1-(4,6-dichloro-5-hydroxypicolinoyl)-N-(2-(trifluoromethoxy)benzyl) piperidine-2-carboxamide]
100 to 500	O=C(Nc1cccc2ncn([C@H]3CC[C@@H]3c3ccccc3)c(=O)c12)c1cc(Cl)c(O)c(Cl)c1 [Example 121, 3,5-dichloro-4-hydroxy-N-(4-oxo-3-((1S,2R)-2-phenylcyclobutyl)-3,4-dihydroquinazolin-5-yl)benzamide]
100 to 500	O=C(Nc1cccc2ncn(Cc3cccnc3Cl)c(=O)c12)c1cc(Cl)c(O)c(Cl)c1 [Example 122, 3,5-dichloro-N-(3-((2-chloropyridin-3-yl)methyl)-4-oxo-3,4-dihydroquinazolin-5-yl)-4-hydroxybenzamide]
100 to 500	O=C(Nc1cccc2ncn(C(CN3CCOCC3)c3ccccc3)c(=O)c12)c1cc(Cl)c(O)c(Cl)c1 (centres unmarked) [Example 123, 3,5-dichloro-4-hydroxy-N-(3-(2-morpholino-1-phenylethyl)-4-oxo-3,4-dihydroquinazolin-5-yl)benzamide]
1000 to 10000	O=C(Nc1nccc2ncn(Cc3ccccc3OC(F)(F)F)c(=O)c12)c1cc(Cl)c(O)c(Cl)c1 [Example 124, 3,5-dichloro-4-hydroxy-N-(4-oxo-3-(2-(trifluoromethoxy)benzyl)-3,4-dihydropyrido[4,3-d]pyrimidin-5-yl)benzamide]
100 to 500	O=C(Nc1sc(C(F)(F)F)nc1C(=O)NCc1ccccc1OC(F)(F)F)c1cc(Cl)c(O)c(Cl)c1 [Example 125, 5-(3,5-dichloro-4-hydroxybenzamido)-N-(2-(trifluoromethoxy)benzyl)-2-(trifluoromethyl)thiazole-4-carboxamide]
